Positions count from the first letter of the chain named.
Assays:
"wild-type" ALDH2 enzyme = target: T1, "wild-type" ALDH2 enzyme (Homo sapiens, UniProt P05091); experiment: Screen and inhibition assay with wild-type ALDH2 enzyme; assay type: biochemical
T1 sequence (P05091 18-517): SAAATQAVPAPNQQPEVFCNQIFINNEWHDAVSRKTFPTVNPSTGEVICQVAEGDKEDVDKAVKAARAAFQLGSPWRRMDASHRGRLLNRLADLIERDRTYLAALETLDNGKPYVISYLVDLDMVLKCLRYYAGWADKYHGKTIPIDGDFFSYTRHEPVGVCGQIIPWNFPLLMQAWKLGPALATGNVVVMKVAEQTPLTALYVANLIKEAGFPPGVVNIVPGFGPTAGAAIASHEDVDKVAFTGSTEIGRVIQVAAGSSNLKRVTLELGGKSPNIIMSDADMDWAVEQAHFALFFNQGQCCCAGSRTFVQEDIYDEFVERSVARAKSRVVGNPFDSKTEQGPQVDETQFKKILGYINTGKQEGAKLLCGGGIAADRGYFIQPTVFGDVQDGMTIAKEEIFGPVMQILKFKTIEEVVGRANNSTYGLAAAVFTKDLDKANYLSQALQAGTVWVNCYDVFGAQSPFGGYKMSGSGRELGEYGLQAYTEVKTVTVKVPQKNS
Procedure: (§1) Compounds were screened using a method as depicted schematically in FIG. 2. Essentially, the reaction is carried out at 25° C. in 0.1 NaPPi buffer, pH 9.5, 2.4 mM NAD^+ and 10 mM acetaldehyde as the substrate. Enzymatic activity is measured by a reductive reaction of NAD^+ to NADH at 340 nm. Alternatively, the production of NADH can be coupled with another enzymatic reaction that consumes NADH and that provides for a detectable signal. An example of such an enzymatic reaction is a diaphorase-based reaction, which reduces resazurin to its […] fluorescent compound resorufin.
Compounds were screened, as described above, but using the “wild-type” ALDH2 enzyme. Of 63,000 compounds screened, six inhibitors were identified. Three of the compounds, referred to in FIGS. 8, 9, and 10 as #062923, #046072, and #032208, respectively, were assayed for their effect on ALDH2 enzymatic activity.

rat hearts = experiment: Ex vivo Langendorff model of myocardial infarction (no-flow ischemia and reperfusion); settings: ex vivo rat heart
Procedure: Ex vivo Langendorff preparations of rat hearts were used as a model to assess the damage incurred by no-flow ischemia and reperfusion injury. This is an experimental model that mimics the clinical situation of myocardial infarction in patients. Rat hearts were excised and cannulated on a Langendorff apparatus via the aorta. Retrograde perfusion was carried out using the standard oxygenated Kreb-Hensleit buffer maintained at 37° C. All hearts were stabilized by an initial 5- to 10-minute perfusion period followed by delivery of different cardioprotective agents or AldDH2 inhibitors for 10-30 minutes, depending on the reagent. Reagents used in some of the representative experiments including ethanol (50 mM), EPKC isozyme-selective activator and inhibitor peptides (1 μM), cyanamide (5 mM) and nitroglycerin (2 μM). […]
The degree of ischemia/reperfusion damage was measured by two independent commonly accepted parameters. […] In another assay, creatine phosphate kinase activity was measured from reperfusate of each heart collected during reperfusion. […] Homogenates from each heart was also obtained from a separate section of the identical sample and analyzed for aldehyde dehydrogenase enzymatic activity. Enzymatic activity was determined by a standard spectrophotometric method described above using acetaldehyde as the substrate and NAD^+ as a cofactor.

[1] = target: T2, E487K variant of human ALDH2 (Homo sapiens, UniProt P05091, E504K); experiment: Enzymatic activity of histidine-tagged E487K ALDH2 variant (NAD+ to NADH, acetaldehyde substrate); assay type: biochemical; settings: over control (without activator compound) activity; n=3
T2 construct: made in house; host or cells: E. coli
T2 sequence (P05091 18-517 E504K): T1 sequence (P05091 18-517) with E487K
Procedure: as §1
For example, a 120 μl reaction mixture for ALDH2 enzymatic activity comprises the following components:
43 μl 150 mM sodium pyrophosphate (NaPPi) buffer, pH 9.0;
15 μl 80 mM acetaldehyde;
1 μl of resazurin (0.2 mg/ml in H2O);
1 μl of diaphorase (1 unit, e.g., from Clostridium kluyveri);
2 μl of variant ALDH2 (e.g., 2 μl of variant ALDH2 at (0.5-2 μg/μl); and
28 μl of a solution comprising an agent to be tested, which agent has been resuspended in an appropriate solvent (e.g., an aqueous solution, DMSO, and the like).
Fluorescent detection of the above-described reaction as described in Table 1:
A fusion protein that includes the E487K variant of human ALDH2 (see amino acid sequence depicted in FIG. 1B) and a poly-histidine tag was synthesized and used in screens for ALDH2 agonists. An expression construct that encodes the […] variant fused in-frame to a poly-histidine (His) tag was introduced into E. coli, and expression was induced by the addition of isopropyl-1-thio-3-D-galactoside (IPTG); and His-tagged E487K ALDH2 variant was produced. The His-tagged E487K ALDH2 variant was purified from E. coli extract using a metal ion affinity column to bind the His-tagged E487K ALDH2 variant. His-tagged E487K ALDH2 variant was eluted from the column and used in screening assays to identify ALDH2 agonists.

ALDH2*1 wild type enzyme = target: T3, ALDH2*1 wild type enzyme (Homo sapiens, UniProt P05091); experiment: ALDH2 enzymatic assay, ALDH2*1 recombinant enzyme; assay type: biochemical; settings: for increase in activity of ALDH2*1 wild type enzyme: at the higher concentration (range 10-200 μM), n=3; for ALDH2 activation, dose dependence: range of 10-200 μM
T3 sequence (P05091 18-517): T1 sequence (P05091 18-517)
Procedure: (§2) BDDB derivative compounds, XO43 and XO44 as depicted in FIG. 12, were synthesized and tested in ALDH2 enzymatic assays. […] Enzymatic activity was measured by a reductive reaction of NAD^+ to NADH at 340 nm, as described in US 2005/0171043; and WO 2005/057213. […] (FIG. 12: n=3 for both right and left panels.)

ALDH2*2 mutant enzyme = target: T4, ALDH2*2 mutant enzyme (Homo sapiens, UniProt P05091, E504K); experiment: ALDH2 enzymatic assay, ALDH2*2 recombinant enzyme; assay type: biochemical; settings: range of 10-200 μM
T4 sequence (P05091 18-517 E504K): T1 sequence (P05091 18-517) with E487K
Procedure: as §2

Male Wistar rats = experiment: In vivo LAD coronary artery ligation ischemia/reperfusion model; design: species or system rat; settings: 8.5 mg/kg into the left ventricle five minutes before LAD ligation, p<0.01
Procedure: Male Wistar rats (250-300 g) were anesthetized by 3% isoflurane. The surgical procedures used for left anterior descending coronary artery (LAD) ligation are based on published protocols Animals were intubated, and ventilated with a Harvard rodent ventilator at a rate of 80 breaths per minute (5-15 mm Hg). Maintenance anesthesia was provided via 1% inhalational isoflurane, and body temperature was maintained at 37° C. using a rectal probe linked to a thermocoupled thermometer and an appropriate heating blanket. The heart was exposed by median sternotomy. Following a 20-minute period of stabilization, a ligature was placed around the LAD coronary artery, close to its origin from the aortic root. The ends of the ligature were passed through polyethylene tubing forming a small noose in which a syringe plunger was rested upon the myocardial surface. Coronary occlusion was achieved by pressing the tubing against the plunger while pulling on the ligature followed by clamping the tubing with a hemostat. Occlusion was determined by observation of immediate pallor of the left ventricular free wall. Reflow was achieved by release of the ligature. […]
At the end of reperfusion, hearts were excised and flushed with 0.9% saline. […] Serum was separated by centrifugation at 5000 g for 5 minutes on a tabletop centrifuge and creatine phosphate kinase (CPK) values were determined.

Structure (SMILES): O=C(Nc1nc2c(Cl)c(Cl)ccc2s1)c1cccnc1 [#032208]
- IC50 ("wild-type" ALDH2 enzyme): 1620 nM

Structure (SMILES): CCc1ccc(C(=O)CCN(C)C)cc1 [#046072]
- IC50 ("wild-type" ALDH2 enzyme): 1140 nM

Structure (SMILES): COc1ccc(C(=O)CCN(C)C)cc1F [#062923]
- IC50 ("wild-type" ALDH2 enzyme): 630 nM

Structure (SMILES): O=C(NCc1ccc2c(c1)OCO2)c1c(Cl)cccc1Cl [Compound 1, N-(1,3-benzodioxol-5-ylmethyl)-2,6-dichlorobenzamide]
- infarct size (rat hearts; ischemia-reperfusion, control 57.7±5.4%, p<0.05, n=7): 41.6±4.1%
- CPK release (rat hearts; reperfusate, control 5530±329, P<0.05, n=8): 4396 Units/Liter
- increase of enzymatic activity of the E487K ALDH2 variant over control [1]: approximately 900%
- increase in activity of ALDH2*1 wild type enzyme (ALDH2*1 wild type enzyme): about 180%
- ALDH2 activation, dose dependence (ALDH2*1 wild type enzyme): dosage dependent effect
- ALDH2 activation, dose dependence (ALDH2*2 mutant enzyme): dosage dependent effect
- decrease of CPK release (Male Wistar rats; rat blood): about 57%
- decrease of the extent of myocardial infarction (Male Wistar rats; rat): about 60%

Structure (SMILES): O=C(NCc1ccc2c(c1)OCO2)c1c(F)cccc1F [Compound 2, N-(1,3-benzodioxol-5-ylmethyl)-2,6-difluorobenzamide]
- increase of enzymatic activity of the E487K ALDH2 variant over control [1]: approximately 300%

Structure (SMILES): O=C(NCc1ccc2c(c1)OCO2)c1ccccc1Br [Compound 3, N-(1,3-benzodioxol-5-ylmethyl)-2-bromobenzamide]
- increase of enzymatic activity of the E487K ALDH2 variant over control [1]: ~600%

Structure (SMILES): O=C(NCc1ccc2c(c1)OCO2)c1ccccc1I [Compound 4, N-(1,3-benzodioxol-5-ylmethyl)-2-iodobenzamide]
- increase of enzymatic activity of the E487K ALDH2 variant over control [1]: ~700%

Structure (SMILES): O=C(NCc1ccc2c(c1)OCO2)c1c(Cl)cncc1Cl [XO43]
- increase in activity of ALDH2*1 wild type enzyme (ALDH2*1 wild type enzyme): about 180%
- ALDH2 activation, dose dependence (ALDH2*1 wild type enzyme): dosage dependent effect
- ALDH2 activation, dose dependence (ALDH2*2 mutant enzyme): dosage dependent effect

Structure (SMILES): Cc1cccc(C)c1C(=O)NCc1ccc2c(c1)OCO2 [XO44]
- increase in activity of ALDH2*1 wild type enzyme (ALDH2*1 wild type enzyme): about 180%
- ALDH2 activation, dose dependence (ALDH2*1 wild type enzyme): dosage dependent effect
- ALDH2 activation, dose dependence (ALDH2*2 mutant enzyme): dosage dependent effect

Reference: patent publication US9315484B2, “Mitochondrial aldehyde dehydrogenase-2 modulators and methods of use thereof” (The Board of Trustees of the Leland Stanford Junior …, priority 2007, dated 2016)
